One assay has as its target T1, human alpha 7-wt nAChR (Homo sapiens, UniProt P36544).
T1 construct: expressed in transfected cells
In words: Ca2+ flux imaging (FDSS) (Protocol B). The assay is classed as cell-based. Particulars: for Emax: efficacy of 100 μM choline defined as 100% in the absence of a PAM, read-out: a7-PAM-G_[33]_Eff_Curve_FI % Efficacy; for EC50: potentiation of 100 μM choline, compounds 0.01 μM to 30 μM, read-out: a7-PAM-G_[33]_pEC50 pEC50 (converted). In a few lines: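 Fluo-4AM-loaded cells expressing human α7-wt nAChR, in HBSS with 10 mM HEPES, 5 mM CaCl2, 0.1% BSA, received compound (0.01–30 μM), typically 10 min before 100 μM choline, with calcium flux read in real time. Potentiation is relative to choline alone (100%); EC50 from sigmoidal curves.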

Assay [1] concerns the target T2, human alpha 7-wt nAChR-expressing GH4C1 cells (Homo sapiens, UniProt P36544).
T2 construct: expressed in transfected cells
Kind of assay: Patch-clamp current recording (whole-cell voltage-clamp, PAM type classification). The assay is classed as cell-based. Also noted: key: Type 0 compounds minimally change the effect size of the current elicited by 1 mM choline.; Type 1 compounds enhance the effect size of the current elicited by 1 mM choline but minimally alter the kinetics of the receptor.; Type 2 compounds enhance the effect size of the current elicited by 1 mM choline while reducing the rate and/or the extent of desensitization.; Type 3 compounds enhance the effect size of the current elicited by 1 mM choline. When tested at higher concentrations up to 10 μM they completely inhibit desensitization; Type 4 compounds allow for an initial desensitization of the receptor followed by a re-opening of the receptor during agonist application. Particulars: 1 mM choline. In a few lines:
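Whole-cell voltage clamp of GH4C1 cells stably expressing human wild-type α7 nAChR, with compound co-applied with 1 mM choline via rapid (<100 ms) solution switching; external pH 7.3, CsCl-based internal solution, 1.5-3 MΩ electrodes. PAM type (0-4) assigned from current kinetics when peak potentiation reached ≥200% of control choline response.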

Each structure is given as a SMILES string.

T1 sequence (P36544 23-502): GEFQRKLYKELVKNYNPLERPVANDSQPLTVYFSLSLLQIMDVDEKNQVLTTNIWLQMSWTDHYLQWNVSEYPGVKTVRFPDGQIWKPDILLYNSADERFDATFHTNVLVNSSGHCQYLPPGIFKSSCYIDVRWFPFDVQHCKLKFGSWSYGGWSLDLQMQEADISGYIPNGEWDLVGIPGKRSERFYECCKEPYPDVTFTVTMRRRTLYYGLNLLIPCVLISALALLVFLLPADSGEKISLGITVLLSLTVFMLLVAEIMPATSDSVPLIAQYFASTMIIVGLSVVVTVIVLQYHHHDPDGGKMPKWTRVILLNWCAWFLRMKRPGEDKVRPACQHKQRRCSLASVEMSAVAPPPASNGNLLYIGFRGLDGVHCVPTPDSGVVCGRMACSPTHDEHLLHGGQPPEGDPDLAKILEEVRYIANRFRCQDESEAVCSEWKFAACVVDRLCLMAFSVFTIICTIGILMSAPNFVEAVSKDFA
T2 sequence (P36544 23-502): as above

On to `Cc1cc(-c2sc(N3C[C@@H](C)O[C@@H](C)C3)nc2CNC(=O)c2conc2C)cc(C)n1` [Compound 18, N-[[2-[(2R,6S)-2,6-dimethyl-4-morpholinyl]-5-(2,6-dimethyl-4-pyridinyl)-4-thiazolyl]methyl]-3-methyl-4-isoxazolecarboxamide], for which, on human alpha 7-wt nAChR, the Emax was found to be 815% and the EC50 was 380 nM. The “PAM_Type PAM type” value in assay [1] worked out at 2.

For `Cc1cc(-c2sc(N3C[C@@H](C)O[C@@H](C)C3)nc2CNC(=O)CC2CC2)cc(C)n1` [Compound 1, N-[[2-[(2R,6S)-2,6-dimethyl-4-morpholinyl]-5-(2,6-dimethyl-4-pyridinyl)-4-thiazolyl]methyl]-cyclopropaneacetamide], on human alpha 7-wt nAChR, the Emax stood at 796% and the EC50 is 186 nM. In addition, in assay [1], the “PAM_Type PAM type” value is 2.

The record behind these values is patent US8637510B2, “Morpholinothiazoles as alpha 7 positive allosteric modulators” (Janssen Pharmaceutica NV, priority 2009, dated 2014).
